Where “and” joins values, the source holds several entries; their conditions need not be identical. Equal entries are not always repeated.
System: 171881-019-R-J1-PDC complex spheroid growth, % test/control
Experiment: Anticancer human tumor 171881-019-R-J1-PDC patient-derived invasive breast carcinoma cell line growth inhibition [Asc]
Conditions: for viability, T/C: stronger effect = lower value
Summary of the method: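 Tumor cells were grown as complex spheroids with human endothelial cells (HUVEC) and human mesenchymal stem cells as stroma. Agents were tested alone and in combination, in half-log steps down from the clinical Cmax, or from 10 microM where Cmax was unknown.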
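Throughout, for viability, T/C: spheroids exposed to compounds for 7 days.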

SMILES: C=CC(=O)N1CCN(c2nc(=O)n(-c3c(C)ccnc3C(C)C)c3nc(-c4c(O)cccc4F)c(F)cc23)C(C)C1 (configuration not stated) + CNC(C)C(=O)NC1CN(S(=O)(=O)c2cccc(S(=O)(=O)N3CCC4CCC(C(=O)NC(c5ccccc5)c5ccccc5)N4C(=O)C(NC(=O)C(C)NC)C3)c2)CCC2CCC(C(=O)NC(c3ccccc3)c3ccccc3)N2C1=O
- IC50 (curve of first compound, second compound 0.01 µM): > 10 µM
- IC50 (curve of first compound, second compound 0.0316 µM): > 10 µM
- IC50 (curve of first compound, second compound 0.1 µM): > 10 µM
- IC50 (curve of first compound, second compound 0.316 µM): > 10 µM
- IC50 (curve of first compound, second compound 1 µM): > 10 µM
- viability, T/C (second compound 0.01 µM, first compound 0.0316 µM): 105%
- viability, T/C (second compound 0.01 µM, first compound 0.1 µM): 94.4%
- viability, T/C (second compound 0.01 µM, first compound 0.316 µM): 84.8%
- viability, T/C (second compound 0.01 µM, first compound 1 µM): 96%
- viability, T/C (second compound 0.01 µM, first compound 3.16 µM): 95.7%
- viability, T/C (second compound 0.01 µM, first compound 10 µM): 85.8%
- viability, T/C (second compound 0.0316 µM, first compound 0.0316 µM): 110%
- viability, T/C (second compound 0.0316 µM, first compound 0.1 µM): 97.7%
- viability, T/C (second compound 0.0316 µM, first compound 0.316 µM): 97.8%
- viability, T/C (second compound 0.0316 µM, first compound 1 µM): 85.7%
- viability, T/C (second compound 0.0316 µM, first compound 3.16 µM): 85.2%
- viability, T/C (second compound 0.0316 µM, first compound 10 µM): 80.3%
- viability, T/C (second compound 0.1 µM, first compound 0.0316 µM): 99.2%
- viability, T/C (second compound 0.1 µM, first compound 0.1 µM): 92.4%
- viability, T/C (second compound 0.1 µM, first compound 0.316 µM): 95.9%
- viability, T/C (second compound 0.1 µM, first compound 1 µM): 98.6%
- viability, T/C (second compound 0.1 µM, first compound 3.16 µM): 96%
- viability, T/C (second compound 0.1 µM, first compound 10 µM): 96.2%
- viability, T/C (second compound 0.316 µM, first compound 0.0316 µM): 95.1%
- viability, T/C (second compound 0.316 µM, first compound 0.1 µM): 95.3%
- viability, T/C (second compound 0.316 µM, first compound 0.316 µM): 103%
- viability, T/C (second compound 0.316 µM, first compound 1 µM): 107%
- viability, T/C (second compound 0.316 µM, first compound 3.16 µM): 94%
- viability, T/C (second compound 0.316 µM, first compound 10 µM): 86.8%
- viability, T/C (second compound 1 µM, first compound 0.0316 µM): 110%
- viability, T/C (second compound 1 µM, first compound 0.1 µM): 110%
- viability, T/C (second compound 1 µM, first compound 0.316 µM): 86%
- viability, T/C (second compound 1 µM, first compound 1 µM): 96.6%
- viability, T/C (second compound 1 µM, first compound 3.16 µM): 96.2%
- viability, T/C (second compound 1 µM, first compound 10 µM): 96.8%

SMILES: Cc1c(S(C)(=O)=O)c(-c2cc(F)cc(N3CCN(c4ccc(NS(=O)(=O)c5ccc(NC(CCN6CCC(C(=O)OCCCP(=O)(O)O)CC6)CSc6ccccc6)c(S(=O)(=O)C(F)(F)F)c5)cc4)CC3)c2)c(-c2ccc(Cl)cc2)n1C(C)C (configuration not stated)
- viability, T/C (compound 0.1 µM): 98.9% [middle of 14 runs]
- viability, T/C (compound 10 µM): 175% [middle of 14 runs]
- IC50 (compound alone, run of 09/27/2022): > 10 µM

SMILES: Cc1nc(N2CCC3(CC2)COC(C)C3N)c(CO)nc1Sc1ccnc(N)c1Cl (configuration not stated)
- viability, T/C (compound 0.00949 µM): 123% and 94.5% and 97.3%
- viability, T/C (compound 0.03 µM): 137% and 100% and 92%
- viability, T/C (compound 0.0949 µM): 214% and 125% and 157%
- viability, T/C (compound 0.3 µM): 268% and 160% and 188%
- viability, T/C (compound 0.949 µM): 225% and 150% and 152%
- viability, T/C (compound 3 µM): 168% and 117% (2×)
- IC50 (curve of compound): > 3 µM

SMILES: C#Cc1c(F)ccc2cc(O)cc(-c3ncc4c(N5CC6CCC(C5)N6)nc(OCC56CCCN5CC(F)C6)nc4c3F)c12 (configuration not stated)
- viability, T/C (compound 0.0316 µM): 105% and 82.7% and 103%
- viability, T/C (compound 0.1 µM): 107% and 98% and 102%
- viability, T/C (compound 0.316 µM): 129% and 115% and 117%
- viability, T/C (compound 1 µM): 229% and 139% and 208%
- viability, T/C (compound 3.16 µM): 271% and 153% and 240%
- viability, T/C (compound 10 µM): 281% and 162% and 190%
- IC50 (curve of compound): > 10 µM
